Source: patent US20220162610A1, “NOVEL RNA TRANSCRIPT” (PTC Therapeutics, Inc., priority 2020, published 2022)

Legend:
HTT pre-mRNA intron 49 = assay: Ampliseq Junction Expression Index (JEI) of HTT introns in GM04856 cells; type: cell-based, human; details: 125 nM, 24 h, vs DMSO, P<0.05
Protocol: Targeted next-generation sequencing Novel splicing events originating from HTT pre-mRNA upon compound treatment were further analyzed using AmpliSeq technology. The GM04856 cells were plated in 6-well plates at 500,000 cells/well in 2000 μl DMEM/10% FBS and incubated for 6 hours in a cell culture incubator (37° C., 5% CO2, 100% relative humidity). Cells were then treated in triplicate with HTT-C1 at 125 nM (in 0.5% DMSO) for 24 hours. Following treatment, RNA was purified using an RNeasy Mini Kit (Qiagen) according to the manufacturer's protocol. Novel splice variants induced by the HTT-C1 compound were detected using Ion AmpliSeq technology (Life Technologies), a PCR-based target enrichment and next-generation sequencing platform. PCR enrichment of HTT exon targets was accomplished by applying a custom HTT AmpliSeq panel. The panel consisted of two separate PCR primer pools, each producing 33 amplicons. […]
For data analysis, Ampliseq reads (Fastq format) were mapped to human genome (hg19) using tophat2 which allowed identification of both known and novel splice junctions. For each one of the 66 introns of HTT gene, a Junction Expression Index (JEI) was calculated using the percent of reads supporting the splicing of the exact annotated intron among all reads supporting the splicing isoforms using either the 5′ splice or/and 3′ splice site of that intron (FIG. 3B). […]

mouse HTT protein = assay: Mouse HTT protein expression under compound treatment; type: cell-based; details: at concentrations that reduce human HTT protein expression
human HTT protein = assay: Pharmacodynamic study in Hu97/18 mice, HTT protein in tissues, CSF and plasma; type: in vivo
Protocol: Test mice were euthanised and brain, muscle (quadriceps), and blood samples were harvested 2 hours after the last dose on Day 20. Prior to analysis, crude total protein from brain and muscle tissue samples was prepared by sample lysis in MSD® assay buffer 1 (MSD®) with Complete™ Protease Inhibitor Cocktail added (Roche Diagnostics). Tissues were then homogenised using TissueLyser II (Qiagen) plus a 5 mm stainless steel bead. The lysate was clarified by centrifugation at 16,000×g for 20 minutes at 4° C. and the total protein concentration quantified with the Pierce™ BCA Protein Assay Kit (Thermo Scientific) according to the manufacturer's instructions. Whole blood was collected by cardiac puncture into EDTA collection tubes. An aliquot (100-200 μL) was added to 1.5 mL of eBioscience™ 1× Red Blood Cell Lysis Buffer (Thermo Fisher) and mixed well for 5 minutes before collecting the white blood cells (WBC) by centrifugation at 400×g. The supernatant was discarded, and the pellet of WBCs was frozen in liquid nitrogen and stored at −70° C. Brain and muscle sample lysates were analysed for hHTT and KRAS protein expression using the ECL protein assay (described previously); using the same method WBC samples were also analysed for hHTT expression but not KRAS.
Hu97/Hu18: Both sexes of 2-4 month old Hu97/181 mice were used. […]

Structure (SMILES) | reduction of junction expression index (JEI) in intron 49 (HTT pre-mRNA intron 49) | mouse HTT protein expression (mouse HTT protein) | HTT protein in striatum and cortex (human HTT protein; 2, 6 or 12 mg/kg daily for 21 days) | HTT protein within the brain and peripheral tissues (human HTT protein; Hu97/18 mice)
CC1(C)CC(Oc2ccc(-c3ccc(-c4ccnc(O)c4)cc3O)nn2)CC(C)(C)N1 [HTT-C1] | > 25% | no effect | – | –
CCN1CCC(c2cc3c(F)cc(-c4cc(C)c5nc(C)cn5n4)cc3nn2)CC1 [HTT-D3] | – | – | uniform HTT protein reduction | dose dependent and more equitable lowering of HTT protein
